Read-outs that look alike come from different tables or passages of the source.

Assay [1] addresses T1, GDP loaded biotinylated KRas^G12C protein (Homo sapiens, UniProt P01116, G12C).
T1 construct: biotin (biotinylated); made in house
Kind of assay: KRasG12C functional assay. The settings on record: HTRF FRET readout of SOS-mediated nucleotide exchange and GST-Raf RBD binding, samples incubated for 4 hrs. The assay is classed as biochemical. As to the method:
KRasG12C Functional Assay
All enzyme and substrate solutions were prepared in assay buffer containing 20 mM HEPES (pH 7.5), 5 mM MgCl2, 150 mM NaCl, and 0.01% Tween 20. […] In a separate mix 20 nM GST-Raf Ras binding domain (GST-Raf RBD, purified in house) and 4 μg/ml anti-GST XL665 antibody (Cisbio) was prepared in assay buffer containing 50 mM Potassium Fluoride and 0.05 mg/ml BSA and equilibrated for 4 hours before adding 0.6 μM Guanosine 5′-[γ-thio]triphosphate (GTPγS, Sigma) and 0.08 μM SOS (purified in house). 5 μl of the GST-RAF RBD mix was then dispensed into each well of the assay plate. […] This is detected simultaneously via the specific binding interaction between active GTPγS KRas^G12C with GST-Raf RBD which brings the europium and XL665 into close proximity enabling an increased FRET signal to be detected on a Pherastar (BMG) plate reader equipped with the HTRF filter module. […] IC50 values were calculated from normalised dose-response response FRET data curve fitted in Genedata screener (Basel, Switzerland).

Assay [2] concerns the target T1, GDP loaded biotinylated KRas^G12C protein. In words: KRasG12C mass spectrometry adducting assay. In kind it is binding. The settings on record: test compound final concentration 10 μM, 4 μM KRasG12C, react for 4 hours. As for the experimental part:
KRasG12C Mass Spectrometry Adducting Assay
Enzyme solutions were prepared in assay buffer containing 20 mM HEPES (pH 7.5), 5 mM MgCl2, and 150 mM NaCl. […] The plate was sealed before reading on a Xevo G2 QTOF (Waters) and Acquity LC system (Waters). […] Blank samples were run in between each test sample.
Data was analysed in Mass Lynx software (Waters), the Total ion count (TIC) trace was used and the eluted protein peak data combined. Using the combined spectrum the data was deconvoluted using MaxEnt1 method. The peak area for apo-protein KRas^G12C (APO) and KRAS+relative cmpd mass (adduct) were measured, and a percentage adduct was calculated using the following calculation:
Percent adduct=100*(area of adduct peak/(sum of APO+adduct peaks)

Setting [3] is: read-out: KRasG12C functional assay IC50 value.
Setting [4] is: KRasG12C functional assay IC50 value (μM).

T1 sequence (P01116 1-188 isoform P01116-2 G12C): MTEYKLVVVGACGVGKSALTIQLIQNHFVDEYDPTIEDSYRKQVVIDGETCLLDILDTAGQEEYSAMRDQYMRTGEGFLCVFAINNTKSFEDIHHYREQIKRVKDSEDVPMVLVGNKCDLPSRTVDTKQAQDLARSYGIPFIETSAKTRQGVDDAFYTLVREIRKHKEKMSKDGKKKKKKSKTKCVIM

Regarding `C=CC(=O)N1CCN2c3nc(N4CC(N(C)C)C4)nc4cc(-c5c(C)ccc6[nH]ncc56)c(Cl)c(c34)OC[C@@H]2C1` (single isomer, unassigned) [Example 76], the IC50 in assay [1] (setting [3]) was determined as 22.4 µM. In assay [2], the “KRasG12C M.S. Binding Mean adduct %” value turned out to be 0%.

Regarding `C=CC(=O)N1CCN2c3nc(N4CC(N(C)C)C4)nc4cc(-c5c(C)ccc6[nH]ncc56)c(Cl)c(c34)OC[C@@H]2C1` (single isomer, unassigned) [Example 77], in assay [1] (setting [3]), the IC50 turned out to be 0.021 µM. Moreover, in assay [2], the “KRasG12C M.S. Binding Mean adduct %” value was determined as 100%.

On to `C=CC(=O)N1CCN2c3nc(NCCN(C)C)nc4cc(-c5c(C)ccc6[nH]ncc56)c(Cl)c(c34)OC[C@@H]2C1` (single isomer, unassigned) [Example 79], for which the IC50 in assay [1] (setting [3]) turned out to be 1.72 µM. The “KRasG12C M.S. Binding Mean adduct %” value in assay [2] is listed as 0%.

Consider `C=CC(=O)N1CCN2c3nc(NCCN(C)C)nc4cc(-c5c(C)ccc6[nH]ncc56)c(Cl)c(c34)OC[C@@H]2C1` (single isomer, unassigned) [Example 80], for which the IC50 in assay [1] (setting [3]) was found to be 0.018 µM. The “KRasG12C M.S. Binding Mean adduct %” value in assay [2] is given as 90%.

Regarding `C=CC(=O)N1CCN2c3ncnc4cc(-c5c(C)ccc6[nH]ncc56)c(Cl)c(c34)OCC[C@@H]2C1` (single isomer, unassigned) [Example 81], the IC50 in assay [1] (setting [3]) is 0.012 µM. In addition, the “KRasG12C M.S. Binding Mean adduct %” value in assay [2] came out at 100%.

For the compound `C=CC(=O)N1CCN2c3ncnc4cc(-c5c(C)ccc6[nH]ncc56)c(Cl)c(c34)OCC[C@@H]2C1` (single isomer, unassigned) [Example 82], in assay [1] (setting [3]), the IC50 was 0.166 µM. Also, the “KRasG12C M.S. Binding Mean adduct %” value in assay [2] was determined as 26%.

As to `C=CC(=O)N1CCN2c3ncnc4cc(-c5c(C)ccc6[nH]ncc56)c(Cl)c(c34)OC[C@@H]2C1` [Example 1, 1-[(8aS)-6-Chloro-5-(5-methyl-1H-indazol-4-yl)-8a,9,11,12-tetrahydropyrazino-[2′,1′:3,4][1,4]oxazepino[5,6,7-de]quinazolin-10 (8H)-yl]-2-propen-1-one], the IC50 in assay [1] (setting [4]) amounted to 0.102 µM. The “KRasG12C M.S. Binding Mean adduct %” value in assay [2] worked out at 95%.

Turning to `Cc1ccc2[nH]ncc2c1-c1cc2ncnc3c2c(c1Cl)OC[C@@H]1CN(C(=O)/C=C/CN(C)C)CCN31` [Example 4, (E)-1-((8aS)-6-Chloro-5-(5-methyl-1H-indazol-4-yl)-8a,9,11,12-tetrahydropyrazino[2′,1′:3,4][1,4]oxazepino[5,6,7-de]quinazolin-10 (8H)-yl)-4-(dimethylamino)but-2-en-1-one], in assay [1] (setting [3]), the IC50 came to 0.518 µM. The “KRasG12C M.S. Binding Mean adduct %” value in assay [2] was found to be 74%.

`C=CC(=O)N1CCN2c3ncnc4cc(-c5c(C)ccc6[nH]ncc56)cc(c34)OC[C@@H]2C1` [Example 5, 1-[(8aS)-5-(5-Methyl-1H-indazol-4-yl)-8a,9,11,12-tetrahydropyrazino[2′,1′:3,4][1,4]-oxazepino[5,6,7-de]quinazolin-10 (8H)-yl]prop-2-en-1-one]: the 50% inhibitory concentration (IC50) in assay [1] (setting [3]) came out at 0.798 µM. Also, the “KRasG12C M.S. Binding Mean adduct %” value in assay [2] was 91%.

With `C=CC(=O)N1CCN2c3ncnc4cc(-c5c(C)ccc6[nH]ncc56)cc(c34)OC[C@H]2C1` [Example 6, 1-[(8aR)-5-(5-Methyl-1H-indazol-4-yl)-8a,9,11,12-tetrahydropyrazino[2′,1′:3,4]-[1,4]oxazepino[5,6,7-de]quinazolin-10 (8H)-yl]prop-2-en-1-one], the IC50 in assay [1] (setting [3]) amounted to 2.37 µM. Besides, in assay [2], the “KRasG12C M.S. Binding Mean adduct %” value was 68%.

In turn, `C=CC(=O)N1CCN2c3ncnc4cc(-c5c(C)ccc6[nH]ncc56)c(Cl)c(c34)OC[C@H]2C1` [Example 7, 1-[(8aR)-6-Chloro-5-(5-methyl-1H-indazol-4-yl)-8a,9,11,12-tetrahydropyrazino-[2′,1′:3,4][1,4]oxazepino[5,6,7-de]quinazolin-10 (8H)-yl]prop-2-en-1-one] yielded an IC50 in assay [1] (setting [4]) of 0.214 µM. For the same compound, the “KRasG12C M.S. Binding Mean adduct %” value in assay [2] was 95%.

The IC50 is the midpoint of a concentration-inhibition curve.

Source of the values: patent US20220127281A1, “HETEROARYL COMPOUNDS THAT INHIBIT G12C MUTANT RAS PROTEINS” (AstraZeneca AB, priority 2017, published 2022).
